In PubChem BioAssay AID1963862 (Molecular Pharmacology Branch, DTP, NCI, 2024):

System: KRAS patient-derived spheroids with HUVEC/MSC, viability
Test: Anticancer human tumor 941728-121-R-J1-PDC patient-derived lung adenocarcinoma cell line growth inhibition [KRAS2]
Settings: for IC50: curve of first compound; for viability, T/C: stronger effect = lower value; active = viability on the fitted dose curve at most 10% of control; inactive = the rest
Outline: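 Combination screen of spheroid viability in tumor-cell co-cultures with endothelial (HUVEC) and mesenchymal stem cell stroma. Each agent was tested in half-log dilutions, topping at clinical Cmax or at 10 microM without a known Cmax.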

[1] = second compound 0.1 µM, first compound 0.0316 µM
[2] = second compound 0.1 µM, first compound 0.1 µM
[3] = second compound 0.316 µM, first compound 0.0316 µM
[4] = second compound 0.316 µM, first compound 0.1 µM
[5] = second compound 1 µM, first compound 0.0316 µM
[6] = second compound 1 µM, first compound 0.1 µM
[7] = second compound 3.16 µM, first compound 0.0316 µM
[8] = second compound 3.16 µM, first compound 0.1 µM
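Note: spheroids exposed to agents for seven days before readout.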

COC(=O)c1ccc2c(C(=Nc3ccc(N(C)C(=O)CN4CCN(C)CC4)cc3)c3ccccc3)c(O)[nH]c2c1 + CC1OCC2(CCN(c3cnc(Sc4ccnc(N)c4Cl)c(N)n3)CC2)C1N
active: viability, T/C (second compound 3.16 µM, first compound 10 µM) 10.7% | viability, T/C (second compound 10 µM, first compound 1 µM) 8.94% | viability, T/C (second compound 10 µM, first compound 3.16 µM) 3.3% | viability, T/C (second compound 10 µM, first compound 10 µM) 1.71%
inactive: viability, T/C [1] 39.2% | viability, T/C [2] 35.5% | viability, T/C (second compound 0.1 µM, first compound 0.316 µM) 36.7% | viability, T/C (second compound 0.1 µM, first compound 1 µM) 37.2% | viability, T/C (second compound 0.1 µM, first compound 3.16 µM) 36.6% | viability, T/C (second compound 0.1 µM, first compound 10 µM) 38.2% | viability, T/C [3] 35.3% | viability, T/C [4] 32.1% | viability, T/C (second compound 0.316 µM, first compound 0.316 µM) 28.8% | viability, T/C (second compound 0.316 µM, first compound 1 µM) 28.8% | viability, T/C (second compound 0.316 µM, first compound 3.16 µM) 24.6% | viability, T/C (second compound 0.316 µM, first compound 10 µM) 25.6% | viability, T/C [5] 34.4% | viability, T/C [6] 25.5% | viability, T/C (second compound 1 µM, first compound 0.316 µM) 18.5% | viability, T/C (second compound 1 µM, first compound 1 µM) 20.4% | viability, T/C (second compound 1 µM, first compound 3.16 µM) 15.4% | viability, T/C (second compound 1 µM, first compound 10 µM) 19.5% | viability, T/C [7] 29.1% | viability, T/C [8] 23.2% | viability, T/C (second compound 3.16 µM, first compound 0.316 µM) 17% | viability, T/C (second compound 3.16 µM, first compound 1 µM) 12.7% | viability, T/C (second compound 3.16 µM, first compound 3.16 µM) 10.5% | viability, T/C (second compound 10 µM, first compound 0.0316 µM) 21.2% | viability, T/C (second compound 10 µM, first compound 0.1 µM) 16% | viability, T/C (second compound 10 µM, first compound 0.316 µM) 9.59%
< 31.6 nM: IC50 (second compound 0.1 µM) | IC50 (second compound 0.316 µM) | IC50 (second compound 1 µM) | IC50 (second compound 3.16 µM) | IC50 (second compound 10 µM)

CC(C)n1nc(-c2ccc3oc(N)nc3c2)c2c(N)ncnc21 + C=CC(=O)N1CCN(c2nc(OCC3CCCN3C)nc3c2CCN(c2cccc4cccc(C)c24)C3)CC1CC#N
inactive: viability, T/C (second compound 0.0316 µM, first compound 0.000316 µM) 35.4% | viability, T/C (second compound 0.0316 µM, first compound 0.001 µM) 32.9% | viability, T/C (second compound 0.0316 µM, first compound 0.00316 µM) 24.6% | viability, T/C (second compound 0.0316 µM, first compound 0.01 µM) 17.3% | viability, T/C (second compound 0.0316 µM, first compound 0.0316 µM) 11.5% | viability, T/C (second compound 0.1 µM, first compound 0.000316 µM) 35.3% | viability, T/C (second compound 0.1 µM, first compound 0.001 µM) 28.8% | viability, T/C (second compound 0.1 µM, first compound 0.00316 µM) 28% | viability, T/C (second compound 0.1 µM, first compound 0.01 µM) 15.9% | viability, T/C [1] 11.1% | viability, T/C [2] 12.5% | viability, T/C (second compound 0.316 µM, first compound 0.000316 µM) 38.2% | viability, T/C (second compound 0.316 µM, first compound 0.001 µM) 33.9% | viability, T/C (second compound 0.316 µM, first compound 0.00316 µM) 26.6% | viability, T/C (second compound 0.316 µM, first compound 0.01 µM) 16.8% | viability, T/C [3] 13% | viability, T/C (second compound 1 µM, first compound 0.000316 µM) 33.1% | viability, T/C (second compound 1 µM, first compound 0.001 µM) 29% | viability, T/C (second compound 1 µM, first compound 0.00316 µM) 20% | viability, T/C (second compound 1 µM, first compound 0.01 µM) 11.9% | viability, T/C [5] 9.99%
active: viability, T/C (second compound 0.0316 µM, first compound 0.1 µM) 11% | viability, T/C [4] 9.77% | viability, T/C [6] 10.3% | viability, T/C (second compound 3.16 µM, first compound 0.000316 µM) 2.26% | viability, T/C (second compound 3.16 µM, first compound 0.001 µM) 0.92% | viability, T/C (second compound 3.16 µM, first compound 0.00316 µM) 0.32% | viability, T/C (second compound 3.16 µM, first compound 0.01 µM) 0.8% | viability, T/C [7] 0.12% | viability, T/C [8] 0.23%
< 0.316 nM: IC50 (second compound 0.0316 µM) | IC50 (second compound 0.1 µM) | IC50 (second compound 0.316 µM) | IC50 (second compound 1 µM) | IC50 (second compound 3.16 µM)
